{
  "source": "patent US5229369A",
  "about": "“Aminoalkylaminocarbonyl aminodiol amino acid derivatives as anti-hypertensive agents” (G. D. Searle & Co., priority 1991, dated 1993)",
  "key": {"[1]": {"molecular_target": "T1, human renin (Homo sapiens, UniProt P00797)", "T1 construct": "purchased National Institute for Biological Standards, London", "T1 sequence (P00797 67-406)": "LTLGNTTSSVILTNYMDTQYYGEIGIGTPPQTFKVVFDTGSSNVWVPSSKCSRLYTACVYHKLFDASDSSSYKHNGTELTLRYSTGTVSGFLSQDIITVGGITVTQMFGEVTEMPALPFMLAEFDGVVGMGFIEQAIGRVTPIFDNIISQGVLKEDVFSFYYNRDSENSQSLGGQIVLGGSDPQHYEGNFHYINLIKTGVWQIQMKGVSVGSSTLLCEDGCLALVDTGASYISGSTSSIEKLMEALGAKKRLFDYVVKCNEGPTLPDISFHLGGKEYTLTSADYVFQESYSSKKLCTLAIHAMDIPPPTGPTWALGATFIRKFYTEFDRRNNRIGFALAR", "assay": "human renin inhibition test in vitro (angiotensin I by radioimmunoassay)", "assay_type": "biochemical", "conditions": "human plasma, pH 7.4, 37° C., two hours", "experimental": "Compounds of Formula I were evaluated as inhibitors of human renin in an in vitro assay, as follows: This human renin inhibition test has been previously described in detail [Papaioannou et al., Clinical and Experimental Hypertension, A7(9), 1243-1257 (1985)]. Human renin was obtained from the National Institute for Biological Standards, London. An incubation mixture was prepared containing in a total volume of 0.25 mL 100 mM Tris-acetate buffer at pH 7.4, 25×10^-6 Goldblatt units of renin, 0.05 mL of plasma from human volunteers taking oral contraceptives, 6.0 mM sodium EDTA, 2.4 mM phenylmethyl sulfonyl fluoride, 1.5 mM 8-hydroxyquinoline, 0.4 mg/mL BSA, and 0.024 mg/mL neomycin sulfate. This mixture was incubated for two hours at 37° C. in the presence or absence of renin inhibitors. The produced angiotensin I was determined by radioimmunoassay (New England Nuclear kit). Test compounds to be assayed were solubilized in DMSO and diluted with 100 mM Tris-acetate buffer at pH 7.4 containing 0.5% bovine serum albumin (BSA) to the appropriate concentration. The final concentration of organic solvent in the reaction mixture was less than 1%. Control incubations at 37° C. were used to correct for effects of organic solvent on renin activity."}, "[2]": {"test_system": "plasma renin", "assay": "oral activity in vivo in sodium depleted Marmoset monkeys, plasma renin activity", "set-up": "species or system Common marmosets (Callithrix jacchus)", "conditions": "1 h, 3 mg/kg dose", "experimental": "The oral activity of compounds of Formula I was determined in vivo in Marmoset monkeys in accordance with the following procedure: Common marmosets (Callithrix jacchus, Charles River) were placed on a modified high protein low sodium diet (Purina, St. Louis, Mo,) for 1 to 2 weeks. On the day of the test an animal was anesthetized with isoflurane and cannulated in the femoral artery and vein for blood pressure monitoring, intravenous saralasin infusion and blood sampling. After allowing the animal to recover from surgery for 2 hr, saralasin was infused at 1 microgram/min for 15 minutes to confirm that the animal's blood pressure was dependent on angiotensin II levels. The marmoset was allowed to stabilize for 30 min after the saralasin infusion. The test compound was administered orally and blood pressure was monitored for 2 hr. Blood samples were taken in K-EDTA for plasma renin activity before, 30 min, and 1 hr after compound administration."}, "[3]": {"test_system": "hog renin", "conditions": "after injection of hog renin into nephrectomized rats; Gross et al, Science, 175, 656 (1971); cited from earlier work"}, "[4]": {"test_system": "aspartyl proteases such as pepsin, cathepsin D and renin", "conditions": "Umezawa et al, J. Antibiot. (Tokyo), 23, 259-262 (1970); cited from earlier work"}},
  "note": "Structures can show the parent of a compound that is named as a salt. Where a SMILES comes first, the peptide text is derived from it. [ ]: non-standard residue; d: D form. The star is where a group is joined. Sta = CC(C)C[C@H](N)[C@@H](O)CC(=O)O; Isovaleryl = CC(C)CC(=O)*",
  "data": [
    {"smiles": "CC(C)C[C@H](O)[C@H](O)[C@H](CC1CCCCC1)NC(=O)[C@H](Cc1c[nH]cn1)NC(=O)[C@H](Cc1ccccc1)OC(=O)N(C)CCN(C)C", "note": "[Example 8, O-{N-[2-(N,N-dimethylamino)ethyl]-N-methylaminocarbonyl}-3-L-phenyllactyl-L-histidineamide of (2S,3R,4S)-2-amino-1-cyclohexyl-3,4-dihydroxy-6-methylheptane]", "values": [
      {"measurement": "IC50", "setting": "[1]", "result": 0.001, "unit": "µM"},
      {"measurement": "% Reduction of Plasma Renin Activity", "setting": "[2]", "result": 100, "unit": "%"}
    ]},
    {"smiles": "CNCCN(C)C(=O)O[C@@H](Cc1ccccc1)C(=O)N[C@@H](Cc1c[nH]cn1)C(=O)N[C@@H](CC1CCCCC1)[C@@H](O)[C@@H](O)CC(C)C", "note": "[Example 10, O-{N-[2-(N-methylamino)ethyl]-N-methylaminocarbonyl}-3-L-phenyllactyl-L-histidineamide of (2S,3R,4S)-2-amino-1-cyclohexyl-3,4-dihydroxy-6-methylheptane]", "values": [
      {"measurement": "IC50", "setting": "[1]", "result": 0.0015, "unit": "µM"},
      {"measurement": "% Reduction of Plasma Renin Activity", "setting": "[2]", "result": 100, "unit": "%"}
    ]},
    {"smiles": "CNCCN(C)C(=O)O[C@@H](Cc1ccccc1)C(=O)N[C@@H](CC(C)C)C(=O)N[C@@H](CC1CCCCC1)[C@@H](O)[C@@H](O)CC(C)C", "note": "[Example 11]", "values": [
      {"measurement": "IC50", "setting": "[1]", "result": 0.0077, "unit": "µM"},
      {"measurement": "% Reduction of Plasma Renin Activity", "setting": "[2]", "result": 100, "unit": "%"}
    ]},
    {"smiles": "CC(C)C[C@H](NC(=O)[C@H](Cc1ccccc1)OC(=O)N(C)CCN(C)C)C(=O)N[C@@H](CC1CCCCC1)[C@@H](O)[C@@H](O)CC(C)C", "note": "[Example 15]", "values": [
      {"measurement": "IC50", "setting": "[1]", "result": 0.0054, "unit": "µM"},
      {"measurement": "% Reduction of Plasma Renin Activity", "setting": "[2]", "result": 79, "unit": "%"}
    ]},
    {"smiles": "CC(C)C[C@H](O)[C@H](O)[C@H](CC1CCCCC1)NC(=O)[C@H](C)CNC(=O)[C@H](Cc1ccccc1)OC(=O)N(C)CCN(C)C", "note": "[Example 18]", "values": [
      {"measurement": "IC50", "setting": "[1]", "result": 0.17, "unit": "µM"}
    ]},
    {"smiles": "CC(C)C[C@H](O)[C@H](O)[C@H](CC1CCCCC1)NC(=O)[C@H](C)CNC(=O)[C@@H](CC(=O)N(C)CCN(C)C)Cc1ccccc1", "note": "[Example 19]", "values": [
      {"measurement": "IC50", "setting": "[1]", "result": 0.048, "unit": "µM"}
    ]},
    {"smiles": "CC(C)C[C@H](NC(=O)[C@H](Cc1ccccc1)OC(=O)N(CCN(C)C)C(C)C)C(=O)N[C@@H](CC1CCCCC1)[C@@H](O)[C@@H](O)CC(C)C", "note": "[Example 20]", "values": [
      {"measurement": "IC50", "setting": "[1]", "result": 0.019, "unit": "µM"}
    ]},
    {"smiles": "CC(C)C[C@H](O)[C@H](O)[C@H](CC1CCCCC1)NC(=O)[C@H](C)CNC(=O)[C@H](CCc1ccccc1)CC(=O)N(C)CCCCN(C)C(=O)OC(C)(C)C", "note": "[Example 21]", "values": [
      {"measurement": "IC50", "setting": "[1]", "result": 1.35, "unit": "µM"}
    ]},
    {"smiles": "CNCCCCN(C)C(=O)C[C@@H](CCc1ccccc1)C(=O)NC[C@@H](C)C(=O)N[C@@H](CC1CCCCC1)[C@@H](O)[C@@H](O)CC(C)C", "note": "[Example 22, 3-{N-[4-(N-methylamino)butyl]-N-methyl-aminocarbonyl}-2-R-phenethyl-propionyl-α-(R)-methyl-β-alanineamide of (2S,3R,4S)-2-amino-1-cyclohexyl-3,4-dihydroxy-6-methylheptane]", "values": [
      {"measurement": "IC50", "setting": "[1]", "result": 0.067, "unit": "µM"}
    ]},
    {"smiles": "CC(C)C[C@H](O)[C@H](O)[C@H](CC1CCCCC1)NC(=O)[C@H](Cc1c[nH]cn1)NC(=O)[C@H](Cc1ccccc1)OC(=O)N(C)CCN(C)C(=O)OC(C)(C)C", "note": "[Example 23]", "values": [
      {"measurement": "IC50", "setting": "[1]", "result": 0.00045, "unit": "µM"}
    ]},
    {"smiles": "CC(C)C[C@H](O)[C@H](O)[C@H](CC1CCCCC1)NC(=O)[C@H](C)CNC(=O)[C@H](CCc1ccccc1)OC(=O)N(C)CCN(C)C", "note": "[Example 24]", "values": [
      {"measurement": "IC50", "setting": "[1]", "result": 0.23, "unit": "µM"}
    ]},
    {"smiles": "CC(C)C[C@H](O)[C@H](O)[C@H](CC1CCCCC1)NC(=O)[C@H](C)CNC(=O)[C@H](CCc1ccccc1)CC(=O)N(C)CCN(C)C(=O)OC(C)(C)C", "note": "[Example 25]", "values": [
      {"measurement": "IC50", "setting": "[1]", "result": 0.01, "unit": "µM"}
    ]},
    {"smiles": "CC(C)C[C@H](O)[C@H](O)[C@H](CC1CCCCC1)NC(=O)[C@H](C)CNC(=O)[C@H](Cc1ccccc1)OC(=O)N(C)CCN(C)C(=O)OC(C)(C)C", "note": "[Example 26]", "values": [
      {"measurement": "IC50", "setting": "[1]", "result": 0.0083, "unit": "µM"}
    ]},
    {"smiles": "CNCCN(C)C(=O)O[C@@H](Cc1ccccc1)C(=O)NC[C@@H](C)C(=O)N[C@@H](CC1CCCCC1)[C@@H](O)[C@@H](O)CC(C)C", "note": "[Example 27]", "values": [
      {"measurement": "IC50", "setting": "[1]", "result": 0.1, "unit": "µM"}
    ]},
    {"smiles": "CNCCN(C)C(=O)C[C@@H](CCc1ccccc1)C(=O)NC[C@@H](C)C(=O)N[C@@H](CC1CCCCC1)[C@@H](O)[C@@H](O)CC(C)C", "note": "[Example 28, trifluoroacetate salt]", "values": [
      {"measurement": "IC50", "setting": "[1]", "result": 0.096, "unit": "µM"}
    ]},
    {"smiles": "CC(C)CC(=O)N[C@H](C(=O)N[C@H](C(=O)N[C@@H](CC(C)C)[C@@H](O)CC(=O)N[C@@H](C)C(=O)N[C@@H](CC(C)C)[C@@H](O)CC(=O)O)C(C)C)C(C)C", "note": "[pepstatin] (Isovaleryl-VV[Sta]A[Sta]-OH)", "values": [
      {"measurement": "blood pressure in vivo", "setting": "[3]", "result": "reduce blood pressure in vivo"},
      {"measurement": "inhibition of aspartyl proteases", "setting": "[4]", "result": "inhibitor of aspartyl proteases such as pepsin, cathepsin D and renin"}
    ]}
  ]
}
